The subject of the data set is PBS pH 7.4 stability, 37 C, LC-MS/MS, 48 h. The data set is described as follows: Inhibitors of Bloom's syndrome helicase: PBS Stability Profiling Assay. The settings on record: at 2 µM; active compounds read high. An excerpt:
Survival of cells and the faithful propagation of the genome depend on elaborate mechanisms of detecting and repairing DNA damage. Treatment of advanced cancer relies on radiation therapy or chemotherapy, which kill cancer cells by causing extensive DNA damage. It is often found, that cancer cells develop resistance to therapy through enhanced activity of DNA repair functions; this has led to an increased interest in developing drugs that interfere with DNA repair, which could sensitize cancer cells to conventional therapy. Bloom syndrome helicase (BLM), is important in resolving abnormal DNA structures formed during replication or homologous recombination. Shutting down the expression of BLM leads to chromosomal instability and higher radiation sensitivity in cultured cells. After the completion of a qHTS campaign, secondary assays, and rounds of medicinal chemistry, a compound was identified to be further characterized through in vitro ADME assays. […]
2uM of compound is incubated in PBS buffer at pH 7; the reference compound is procaine. Compounds are incubated at 37 deg C for the pre-determined time periods and the when aliquots are removed. Samples are analyzed with LC-MS/MS.

On to `O=C(Nc1ccc(F)c(C(F)(F)F)c1)Nc1nnc(-c2ccncc2)s1`, for which the percent remaining was 100%.

Source of the values: PubChem BioAssay AID504741 (National Center for Advancing Translational Sciences (NCATS), 2011).
